In patent US8722703B2, “Fused amino pyridines for the treatment of brain tumors” (Curis, Inc., priority 2009, dated 2014):

Columns and labels:
[1] = biological target: HSP90 (Homo sapiens, UniProt P07900); experiment: HSP90 competition binding (fluorescence polarization) assay
Text: (b) HSP90 Competition Binding (Fluorescence Polarization) Assay.
A fluorescein isothiocyanate (FITC) labeled GM was purchase from InvivoGen (ant-fgl-1). The interaction between HSP90 and labeled GM forms the basis for the fluorescence polarization assay. A free and fast-tumbling FITC labeled GM emits random light with respect to the plane of polarization plane of excited light, resulting in a lower polarization degree (mP) value. When GM is bound to HSP90, the complex tumble slower and the emitted light is polarized, resulting in a higher mP value. […] The assay buffer contained 20 mM HEPES (pH 7.3), 50 mM KCl, 1 mM DTT, 50 mM MgCl2, 20 mM Na2MoO4, 0.01% NP40 with 0.1 mg/ml bovine gamma-globulin.

[2] = Mouse brain concentrations after oral 30 mg/Kg in nude mice with U87MG xenografts; assay type: in vivo; settings: oral (30 mg/Kg) delivery, U87MG xenografts; for concentration at 0 hr / concentration at 0.5 hr / concentration at 1 hr / concentration at 3 hr / concentration at 6 hr / concentration at 24 hr: female, athymic nude (CD-1 nu/nu), mouse, brain, read-out: HSP90 Compounds in Mouse Brain
[3] = system: H1975 intracranial tumor; experiment: Efficacy study in H1975 intracranial metastasis model; assay type: in vivo, nude mice; settings: Compound-15 120 mg/kg orally once every two days, lapatinib 75 mg/kg orally twice a day, 4 wk
[4] = system: H1975 orthotopic lung tumor; experiment: Efficacy study in the H1975 orthotopic lung tumor (NSCLC) model; assay type: in vivo, nude mice; settings: Compound-15 120 mg/kg orally once every two days, erlotinib 50 mg/kg orally once a day, 5 wk
Procedure: Dose-dependent efficacy study of Compound-15 in H1975 orthotopic lung tumor model (n=11): Mice were treated with Compound-15 (20, 40, 80, and 120 mg/kg) starting 4 day after tumor implantation.

[5] = system: A549 orthotopic lung tumor; experiment: Efficacy study in A549 orthotopic lung tumor model; assay type: in vivo, nude mice; settings: Compound-15 120 mg/kg orally once every two days, erlotinib 50 mg/kg orally once a day, 4 wk

| SMILES | IC50 [1] | concentration at 0 hr [2] | concentration at 0.5 hr [2] | concentration at 1 hr [2] | concentration at 3 hr [2] | concentration at 6 hr [2] | concentration at 24 hr [2] | AUC in mouse brain [2] | also measured |
| --- | --- | --- | --- | --- | --- | --- | --- | --- | --- |
| CC(C)(C)CNCCCn1c(Sc2cc3c(cc2Br)OCO3)nc2c(N)nccc21 [Compound 10] | 100 to 1000 nM |  |  |  |  |  |  |  |  |
| CC(C)(C)CNCCn1c(Sc2cc3c(cc2S(C)(=O)=O)OCO3)nc2c(N)nccc21 [Compound 23] |  | 0 ng/g | 5.4 ng/g | 13.6 ng/g | 21.5 ng/g | 9.1 ng/g | 3 ng/g | 231.8 ng·h/g |  |
| CS(=O)(=O)CCNCc1ccc(-c2ccc3ncnc(Nc4ccc(OCc5cccc(F)c5)c(Cl)c4)c3c2)o1 [lapatinib, reference compound] |  |  |  |  |  |  |  |  | animal survival [3]: lack of lapatinib efficacy |
| C#Cc1cccc(Nc2ncnc3cc(OCCOC)c(OCCOC)cc23)c1 [erlotinib, reference compound] |  |  |  |  |  |  |  |  | animal survival [4]: no therapeutic benefit; animal survival [5]: no antitumor effect |
| CC(C)(C)CNCCCn1c(Sc2cc3c(cc2I)OCO3)nc2c(N)nccc21 [Compound 11, 2-(6-iodobenzo[d][1,3]dioxol-5-ylthio)-1-(3-(neopentylamino)propyl)-1H-imidazo[4,5-c]pyridin-4-amine] | 100 to 1000 nM |  |  |  |  |  |  |  |  |
| NC(=O)CCCn1c(Sc2cc3c(cc2I)OCO3)nc2c(N)nccc21 [Compound 22] |  | 0 ng/g | 2.5 ng/g | 2.2 ng/g | 3.7 ng/g | 0.9 ng/g | 1.3 ng/g | 36.7 ng·h/g |  |
